target: Cyclin-dependent kinase 5/CDK5 activator 1 (Homo sapiens, UniProt Q00535); format: protein-complex assay
Sequence (Q00535 whole entry): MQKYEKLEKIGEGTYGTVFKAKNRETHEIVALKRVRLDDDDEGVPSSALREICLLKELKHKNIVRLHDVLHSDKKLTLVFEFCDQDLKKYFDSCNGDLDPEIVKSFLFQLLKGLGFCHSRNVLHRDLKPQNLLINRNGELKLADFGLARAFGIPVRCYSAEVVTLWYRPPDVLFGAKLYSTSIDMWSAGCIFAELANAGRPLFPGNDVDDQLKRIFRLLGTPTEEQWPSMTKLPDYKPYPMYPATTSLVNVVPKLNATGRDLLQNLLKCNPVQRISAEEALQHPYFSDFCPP
Sequence (Q15078 whole entry, further chain): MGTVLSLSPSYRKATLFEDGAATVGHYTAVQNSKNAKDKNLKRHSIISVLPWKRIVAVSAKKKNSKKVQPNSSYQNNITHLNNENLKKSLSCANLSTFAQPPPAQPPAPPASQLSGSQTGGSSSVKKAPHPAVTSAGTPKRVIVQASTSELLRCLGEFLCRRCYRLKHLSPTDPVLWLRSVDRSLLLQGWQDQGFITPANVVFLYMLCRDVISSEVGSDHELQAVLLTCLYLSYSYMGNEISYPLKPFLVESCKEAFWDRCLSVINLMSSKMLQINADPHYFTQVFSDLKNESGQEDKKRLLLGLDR

SMILES	IC50
CC(=O)Nc1sc2c(c1Cc1nnc(SCC(=O)NNC(=O)CCl)n1NC(C)=O)CCCC2	474 nM
CC(=O)Nn1c(Cc2c(NC(=O)c3ccccc3)sc3c2CCCC3)nnc1SCc1nnc(S)n1N	6140 nM
CC(=O)Nc1sc2c(c1Cc1n[nH]c(=S)n1NC(=O)c1ccccc1)CCCC2	572 nM
CC(=O)Nc1sc2c(c1Cc1nnc(SCc3n[nH]c(=S)n3N)n1NC(=O)c1ccccc1)CCCC2	6440 nM
COC(=O)CSc1nnc(Cc2c(NCCC(=O)O)sc3c2CCCC3)n1NC(C)=O	733 nM
O=C(CSc1nnc(Cc2c(NC(=O)c3ccccc3)sc3c2CCCC3)n1NC(=O)c1ccc(Cl)cc1)NNC(=O)c1ccccc1	483 nM
CC(=O)Nc1sc2c(c1Cc1nnc(S)n1NC(C)=O)CCCC2	584 nM
COC(=O)CSc1nnc(Cc2c(NC(C)=O)sc3c2CCCC3)n1NC(=O)c1ccccc1	578 nM
CC(=O)Nn1c(S)nnc1Cc1c(NC(=O)c2ccccc2)sc2c1CCCC2	618 nM
CC(=O)Nc1sc2c(c1Cc1nnc(SCc3n[nH]c(=S)n3N)n1NC(C)=O)CCCC2	5150 nM
O=C(Nc1sc2c(c1Cc1nnc(SCSc3nnc(Cc4c(NC(=O)c5ccccc5)sc5c4CCCC5)n3NC(=O)c3ccc(Cl)cc3)n1NC(=O)c1ccc(Cl)cc1)CCCC2)c1ccccc1	627 nM
COC(=O)CSc1nnc(Cc2c(NCCC(=O)O)sc3c2CCCC3)n1NC(=O)c1ccccc1	641 nM
Nn1c(CSc2nnc(Cc3c(NC(=O)c4ccccc4)sc4c3CCCC4)n2NC(=O)c2ccccc2)n[nH]c1=S	4590 nM
CC(=O)Nn1c(Cc2c(NC(=O)c3ccccc3)sc3c2CCCC3)nnc1SCSc1nnc(Cc2c(NC(=O)c3ccccc3)sc3c2CCCC3)n1NC(C)=O	766 nM
CC(=O)Nc1sc2c(c1Cc1nnc(SCC(=O)NNC(=O)CCl)n1NC(=O)c1ccccc1)CCCC2	643 nM
Nn1c(S)nnc1CSc1nnc(Cc2c(NCCC(=O)O)sc3c2CCCC3)n1NC(=O)c1ccc(Cl)cc1	5850 nM
COC(=O)CSc1nnc(Cc2c(NC(=O)c3ccccc3)sc3c2CCCC3)n1NC(C)=O	567 nM
O=C(O)CCNc1sc2c(c1Cc1n[nH]c(=S)n1NC(=O)c1ccccc1)CCCC2	674 nM
CC(=O)Nc1sc2c(c1Cc1nnc(SCC(=O)NNC(=O)c3ccccc3)n1NC(=O)c1ccc(Cl)cc1)CCCC2	525 nM
O=C(CCl)NNC(=O)CSc1nnc(Cc2c(NC(=O)c3ccccc3)sc3c2CCCC3)n1NC(=O)c1ccccc1	547 nM
CC(=O)NNC(=O)CSc1nnc(Cc2c(NC(C)=O)sc3c2CCCC3)n1NC(=O)c1ccccc1	548 nM
CC(=O)Nn1c(Cc2c(NCCC(=O)O)sc3c2CCCC3)nnc1SCc1nnc(S)n1N	6210 nM

SMILES	IC50
CC(=O)NNC(=O)CSc1nnc(Cc2c(NC(C)=O)sc3c2CCCC3)n1NC(=O)c1ccc(Cl)cc1	641 nM
CC(=O)Nn1c(Cc2c(NCCC(=O)O)sc3c2CCCC3)nnc1SCC(=O)NNC(=O)c1ccccc1	476 nM
CC(=O)Nc1sc2c(c1Cc1nnc(SCSc3nnc(Cc4c(NC(C)=O)sc5c4CCCC5)n3NC(=O)c3ccccc3)n1NC(=O)c1ccccc1)CCCC2	646 nM
CC(=O)Nc1sc2c(c1Cc1nnc(SCSc3nnc(Cc4c(NC(C)=O)sc5c4CCCC5)n3NC(C)=O)n1NC(C)=O)CCCC2	839 nM
O=C(O)CCNc1sc2c(c1Cc1nnc(SCSc3nnc(Cc4c(NCCC(=O)O)sc5c4CCCC5)n3NC(=O)c3ccccc3)n1NC(=O)c1ccccc1)CCCC2	577 nM
CC(=O)Nc1sc2c(c1Cc1nnc(SCc3nnc(S)n3N)n1NC(=O)c1ccc(Cl)cc1)CCCC2	6380 nM
CC(=O)NNC(=O)CSc1nnc(Cc2c(NC(=O)c3ccccc3)sc3c2CCCC3)n1NC(=O)c1ccccc1	564 nM
CC(=O)Nn1c(Cc2c(NCCC(=O)O)sc3c2CCCC3)nnc1SCC(=O)NN	931 nM
CC(=O)Nn1c(Cc2c(NCCC(=O)O)sc3c2CCCC3)nnc1SCSc1nnc(Cc2c(NCCC(=O)O)sc3c2CCCC3)n1NC(C)=O	734 nM
O=C(Nc1sc2c(c1Cc1nnc(SCSc3nnc(Cc4c(NC(=O)c5ccccc5)sc5c4CCCC5)n3NC(=O)c3ccccc3)n1NC(=O)c1ccccc1)CCCC2)c1ccccc1	695 nM
Nn1c(CSc2nnc(Cc3c(NCCC(=O)O)sc4c3CCCC4)n2NC(=O)c2ccccc2)n[nH]c1=S	4990 nM
CC(=O)Nn1c(Cc2c(NC(=O)c3ccccc3)sc3c2CCCC3)nnc1SCC#N	564 nM
CC(=O)Nn1c(Cc2c(NCCC(=O)O)sc3c2CCCC3)nnc1SCC(=O)N/N=C/c1ccccc1	535 nM
CC(=O)NNC(=O)CSc1nnc(Cc2c(NC(=O)c3ccccc3)sc3c2CCCC3)n1NC(C)=O	639 nM
N#CCSc1nnc(Cc2c(NCCC(=O)O)sc3c2CCCC3)n1NC(=O)c1ccccc1	4870 nM
CC(=O)Nn1c(Cc2c(NCCC(=O)O)sc3c2CCCC3)nnc1SCC#N	641 nM
CC(=O)NNC(=O)CSc1nnc(Cc2c(NCCC(=O)O)sc3c2CCCC3)n1NC(=O)c1ccccc1	467 nM
N#CCSc1nnc(Cc2c(NC(=O)c3ccccc3)sc3c2CCCC3)n1NC(=O)c1ccccc1	486 nM
O=C(Nc1sc2c(c1Cc1nnc(S)n1NC(=O)c1ccccc1)CCCC2)c1ccccc1	891 nM
N#CCSc1nnc(Cc2c(NC(=O)c3ccccc3)sc3c2CCCC3)n1NC(=O)c1ccc(Cl)cc1	551 nM
COC(=O)CSc1nnc(Cc2c(NCCC(=O)O)sc3c2CCCC3)n1NC(=O)c1ccc(Cl)cc1	541 nM
Nn1c(S)nnc1CSc1nnc(Cc2c(NC(=O)c3ccccc3)sc3c2CCCC3)n1NC(=O)c1ccc(Cl)cc1	3280 nM

More lines, now with the values ahead:

IC50	SMILES
362 nM	O=C(O)CCNc1sc2c(c1Cc1nnc(SCC(=O)NNC(=O)CCl)n1NC(=O)c1ccccc1)CCCC2
164 nM	O=C(O)CCNc1sc2c(c1Cc1nnc(SCSc3nnc(Cc4c(NCCC(=O)O)sc5c4CCCC5)n3NC(=O)c3ccc(Cl)cc3)n1NC(=O)c1ccc(Cl)cc1)CCCC2
217 nM	O=C(CSc1nnc(Cc2c(NC(=O)c3ccccc3)sc3c2CCCC3)n1NC(=O)c1ccc(Cl)cc1)N/N=C/c1ccccc1
433 nM	CC(=O)Nn1c(Cc2c(NCCC(=O)O)sc3c2CCCC3)n[nH]c1=S
213 nM	CC(=O)Nc1sc2c(c1Cc1nnc(SCC(=O)N/N=C/c3ccccc3)n1NC(=O)c1ccc(Cl)cc1)CCCC2
434 nM	O=C(O)CCNc1sc2c(c1Cc1nnc(SCC(=O)NNC(=O)c3ccccc3)n1NC(=O)c1ccccc1)CCCC2
385 nM	CC(=O)Nc1sc2c(c1Cc1nnc(SCC(=O)N/N=C/c3ccccc3)n1NC(=O)c1ccccc1)CCCC2
413 nM	CC(=O)Nc1sc2c(c1Cc1nnc(SCC(=O)NNC(=O)c3ccccc3)n1NC(=O)c1ccccc1)CCCC2
460 nM	CC(=O)Nc1sc2c(c1Cc1n[nH]c(=S)n1NC(=O)c1ccc(Cl)cc1)CCCC2
393 nM	CC(=O)Nc1sc2c(c1Cc1nnc(SCC#N)n1NC(=O)c1ccccc1)CCCC2
265 nM	CC(=O)Nn1c(Cc2c(NCCC(=O)O)sc3c2CCCC3)nnc1SCC(=O)NNC(=O)CCl
435 nM	O=C(CSc1nnc(Cc2c(NC(=O)c3ccccc3)sc3c2CCCC3)n1NC(=O)c1ccccc1)N/N=C/c1ccccc1
267 nM	O=C(O)CCNc1sc2c(c1Cc1nnc(SCC(=O)N/N=C/c3ccccc3)n1NC(=O)c1ccccc1)CCCC2
352 nM	CC(=O)NNC(=O)CSc1nnc(Cc2c(NCCC(=O)O)sc3c2CCCC3)n1NC(=O)c1ccc(Cl)cc1
411 nM	CC(=O)Nn1c(Cc2c(NC(=O)c3ccccc3)sc3c2CCCC3)nnc1SCC(=O)NNC(=O)c1ccccc1
201 nM	NNC(=O)CSc1nnc(Cc2c(NCCC(=O)O)sc3c2CCCC3)n1NC(=O)c1ccc(Cl)cc1
457 nM	O=C(O)CCNc1sc2c(c1Cc1nnc(S)n1NC(=O)c1ccc(Cl)cc1)CCCC2
366 nM	CC(=O)NNC(=O)CSc1nnc(Cc2c(NCCC(=O)O)sc3c2CCCC3)n1NC(C)=O
453 nM	CC(=O)Nc1sc2c(c1Cc1nnc(SCC(=O)N/N=C/c3ccccc3)n1NC(C)=O)CCCC2
367 nM	CC(=O)Nc1sc2c(c1Cc1nnc(SCSc3nnc(Cc4c(NC(C)=O)sc5c4CCCC5)n3NC(=O)c3ccc(Cl)cc3)n1NC(=O)c1ccc(Cl)cc1)CCCC2

IC50	SMILES
455 nM	NNC(=O)CSc1nnc(Cc2c(NCCC(=O)O)sc3c2CCCC3)n1NC(=O)c1ccccc1
415 nM	CC(=O)Nc1sc2c(c1Cc1nnc(SCC#N)n1NC(=O)c1ccc(Cl)cc1)CCCC2
458 nM	CC(=O)Nc1sc2c(c1Cc1nnc(SCC#N)n1NC(C)=O)CCCC2
192 nM	CC(=O)Nc1sc2c(c1Cc1nnc(SCC(=O)NN)n1NC(=O)c1ccccc1)CCCC2
436 nM	CC(=O)Nc1sc2c(c1Cc1nnc(SCC(=O)NNC(=O)c3ccccc3)n1NC(C)=O)CCCC2
467 nM	CC(=O)Nn1c(Cc2c(NC(=O)c3ccccc3)sc3c2CCCC3)nnc1SCC(=O)N/N=C/c1ccccc1
271 nM	O=C(O)CCNc1sc2c(c1Cc1nnc(SCC(=O)NNC(=O)c3ccccc3)n1NC(=O)c1ccc(Cl)cc1)CCCC2
318 nM	CC(=O)NNC(=O)CSc1nnc(Cc2c(NC(=O)c3ccccc3)sc3c2CCCC3)n1NC(=O)c1ccc(Cl)cc1
389 nM	COC(=O)CSc1nnc(Cc2c(NC(C)=O)sc3c2CCCC3)n1NC(C)=O
389 nM	COC(=O)CSc1nnc(Cc2c(NC(C)=O)sc3c2CCCC3)n1NC(=O)c1ccc(Cl)cc1
236 nM	NNC(=O)CSc1nnc(Cc2c(NC(=O)c3ccccc3)sc3c2CCCC3)n1NC(=O)c1ccc(Cl)cc1
260 nM	CC(=O)Nc1sc2c(c1Cc1nnc(SCC(=O)NNC(=O)CCl)n1NC(=O)c1ccc(Cl)cc1)CCCC2
327 nM	CC(=O)NNC(=O)CSc1nnc(Cc2c(NC(C)=O)sc3c2CCCC3)n1NC(C)=O
258 nM	O=C(O)CCNc1sc2c(c1Cc1nnc(SCC(=O)N/N=C/c3ccccc3)n1NC(=O)c1ccc(Cl)cc1)CCCC2
466 nM	O=C(CSc1nnc(Cc2c(NC(=O)c3ccccc3)sc3c2CCCC3)n1NC(=O)c1ccccc1)NNC(=O)c1ccccc1
249 nM	CC(=O)Nc1sc2c(c1Cc1nnc(SCC(=O)NN)n1NC(C)=O)CCCC2
340 nM	O=C(CCl)NNC(=O)CSc1nnc(Cc2c(NC(=O)c3ccccc3)sc3c2CCCC3)n1NC(=O)c1ccc(Cl)cc1
180 nM	CC(=O)Nn1c(Cc2c(NC(=O)c3ccccc3)sc3c2CCCC3)nnc1SCC(=O)NN
353 nM	COC(=O)CSc1nnc(Cc2c(NC(=O)c3ccccc3)sc3c2CCCC3)n1NC(=O)c1ccccc1
358 nM	CC(=O)Nn1c(Cc2c(NC(=O)c3ccccc3)sc3c2CCCC3)nnc1SCC(=O)NNC(=O)CCl
